Reference: patent publication US20220030868A1, “FUNGICIDAL HALOMETHYL KETONES AND HYDRATES” (FMC CORPORATION, priority 2018, published 2022)
Marks after values point to notes of the source that are not given here.

Key:
[1] = test system: Puccinia recondita f. sp. tritici; assay: Test B: test suspension sprayed on wheat seedlings one day before inoculation with Puccinia recondita f. sp. tritici spores (wheat leaf rust), disease rating; type: in vivo; conditions: 100 = 100% disease control, 0 = no control; for pest or weed control at 50 ppm: 50 ppm test suspension
Outline: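 Wheat seedlings were sprayed to run-off with compound suspended in 50/50 acetone/water containing 250 ppm PEG400, then inoculated with P. recondita f. sp. tritici spores the next day. Plants were held 24 h in saturated air at 20 °C, then 6 days in a growth chamber at 20 °C. Disease control was rated 0–100% relative to controls, with some entries run at 50 or 10 ppm.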

Phakopsora pachyrhizi = assay: Test A: test suspension sprayed on soybean seedlings one day before inoculation with Phakopsora pachyrhizi spores (Asian soybean rust), visual disease rating; type: in vivo; conditions: 100 = 100% disease control, 0 = no control; for pest or weed control at 10 ppm / pest or weed control at 50 ppm: Phakopsora pachyrhizi; for pest or weed control at 50 ppm: 50 ppm test suspension
Outline: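 Compound dissolved in acetone (3% of final volume), then suspended at the stated ppm in 50/50 acetone/water with 250 ppm PEG400 surfactant; sprayed to run-off on soybean seedlings, inoculated with P. pachyrhizi spores next day. Held saturated at 22° C for 24 h, then 8 days at 22° C; visual rating as % disease control versus controls.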

Uncinula necator = assay: Test C: test suspension sprayed on grape seedlings one day before inoculation with Uncinula necator spores (grape powdery mildew), disease rating; type: in vivo; conditions: 50 ppm test suspension, 100 = 100% disease control; for pest or weed control at 50 ppm: Erysiphe necator
From the text: General protocol for preparing test suspensions for Tests A-C: the test compounds were first dissolved in acetone in an amount equal to 3% of the final volume and then suspended at the desired concentration (in ppm) in acetone and purified water (50/50 mix by volume) containing 250 ppm of the surfactant PEG400 (polyhydric alcohol esters). The resulting test suspensions were then used in Tests A-C. The test solution was sprayed to the point of run-off on grape seedlings. The following day the seedlings were inoculated with a spore suspension of Uncinula necator (the causal agent of grape powdery mildew) and incubated in a growth chamber at 20° C. for 12 days, after which time disease ratings were made. Results for Tests A-C are given in Table A. In the Table, a rating of 100 indicates 100% disease control and a rating of 0 indicates no disease control (relative to the controls). An asterisk “*” or a double asterisk “**” next to the rating value indicates a 50 ppm or 10 ppm test suspension was used, respectively. A dash (-) indicates the compound was not tested.

Structure (SMILES)	pest or weed control at 10 ppm ([1]; 10 ppm test suspension) [%]	pest or weed control at 10 ppm (Phakopsora pachyrhizi; 10 ppm test suspension) [%]	pest or weed control at 50 ppm (Uncinula necator) [%]	Test C rating (disease control) (Uncinula necator)	Test B rating (disease control) ([1]; 10 ppm test suspension) [%]	Test A rating (disease control) (Phakopsora pachyrhizi; 10 ppm test suspension) [%]	further results
O=C(NCC1CC1)c1csc(Cc2ccc(OCC3(C(F)(F)F)OCCO3)cc2)n1 [Compound 71, N-(cyclopropylmethyl)-2-[[4-[[2-(trifluoromethyl)-1,3-dioxolan-2-yl]methoxy]phenyl]-methyl]thiazole-4-carboxamide]	96	100	–	–	–	–	melting point: 88 to 92 °C
CCOC(=O)c1cnn(CCc2ccc(O/C=C(\OCC)C(F)(F)F)cc2)c1 [Compound 132, ethyl 1-[2-[4-[[(1Z)-2-ethoxy-3,3,3-trifluoro-1-propen-1-yl]oxy]phenyl]ethyl]-1H-pyrazole-4-carboxylate]	0	100	98	–	–	–	–
COCCOC(=O)c1cnn(Cc2ccc(OCC3(C(F)(F)F)OCCO3)cc2)c1 [Compound 162, 2-methoxyethyl 1-[[4-[[2-(trifluoromethyl)-1,3-dioxolan-2-yl]methoxy]phenyl]methyl]-1H-pyrazole-4-carboxylate]	0	100	100	–	–	–	–
CC#CCOC(=O)c1cnn(Cc2ccc(OCC3(C(F)(F)F)OCCO3)cc2)c1 [Compound 163, 2-butyn-1-yl 1-[[4-[[2-(trifluoromethyl)-1,3-dioxolan-2-yl]methoxy]phenyl]methyl]-1H-pyrazole-4-carboxylate]	0	100	100	–	–	–	–
N#CCCCOC(=O)c1cnn(Cc2ccc(OCC3(C(F)(F)F)OCCO3)cc2)c1 [Compound 171, 3-cyanopropyl 1-[[4-[[2-(trifluoromethyl)-1,3-dioxolan-2-yl]methoxy]phenyl]methyl]-1H-pyrazole-4-carboxylate]	0	100	99	–	–	–	–
CCO/C(=C\Oc1ccc(Cn2cc(C(=O)OCc3ccccc3)cn2)cc1)C(F)(F)F [Compound 186, phenylmethyl 1-[[4-[[(1Z)-2-ethoxy-3,3,3-trifluoro-1-propen-1-yl]oxy]phenyl]methyl]-1H-pyrazole-4-carboxylate]	0	100	100	–	–	–	melting point: 63 to 67 °C
CCCCOC(=O)c1cnn(Cc2ccc(O/C=C(\OCC)C(F)(F)F)cc2)c1 [Compound 218, butyl 1-[[4-[[(1Z)-2-ethoxy-3,3,3-trifluoro-1-propen-1-yl]oxy]phenyl]methyl]-1H-pyrazole-4-carboxylate]	0	100	100	–	–	–	–
CCO/C(=C\Oc1ccc(Cn2cc(C(=O)OCCCCl)cn2)cc1)C(F)(F)F [Compound 221, 3-chloropropyl 1-[[4-[[(1Z)-2-ethoxy-3,3,3-trifluoro-1-propen-1-yl]oxy]phenyl]methyl]-1H-pyrazole-4-carboxylate]	0	100	100	–	–	–	–
CCOC(=O)c1cnn(Cc2ccc(O/C=C(\OCC)C(F)(F)F)c(F)c2)c1 [Compound 262, ethyl 1-[[4-[[(1Z)-2-ethoxy-3,3,3-trifluoro-1-propen-1-yl]oxy]-3-fluorophenyl]methyl]-1H-pyrazole-4-carboxylate]	0	100	99	–	–	–	–
CCOC(=O)c1cnn(Cc2cccc(O/C=C(\OCC)C(F)(F)F)c2)c1 [Compound 265, ethyl 1-[[3-[[(1Z)-2-ethoxy-3,3,3-trifluoro-1-propen-1-yl]oxy]phenyl]methyl]-1H-pyrazole-4-carboxylate]	–	–	100	–	–	–	pest or weed control at 50 ppm [1]: 0%; pest or weed control at 50 ppm (Phakopsora pachyrhizi): 100%
CCOC(=O)c1cnn(Cc2ccc(O/C=C(\OC(C)C)C(F)(F)F)cc2)c1 [compound 57]	–	–	–	100* %	–	–	Test B rating (disease control) ([1]; 250 ppm test suspension): 0%; Test A rating (disease control) (Phakopsora pachyrhizi; 250 ppm test suspension): 100%
CCOC(=O)c1cnn(Cc2ccc(OCC3(C(F)(F)F)OCCO3)cn2)c1 [compound 124]	–	–	100	–	–	–	pest or weed control at 50 ppm [1]: 0%; pest or weed control at 50 ppm (Phakopsora pachyrhizi): 100%
CCO/C(=C\Oc1ccc(Cn2cc(C(=O)OC)cn2)cc1)C(F)(F)F [compound 138]	–	–	–	100* %	0	100	–
O=C(COC(=O)c1cnn(Cc2ccc(OCC3(C(F)(F)F)OCCO3)cc2)c1)c1ccccc1 [compound 170]	–	–	–	100* %	0	100	–
C#CCOC(=O)c1cnn(Cc2ccc(O/C=C(\OCC)C(F)(F)F)cc2)c1 [compound 185]	–	–	–	100* %	0	100	–
CCO/C(=C\Oc1ccc(Cn2cc(C(=O)OCC(C)=O)cn2)cc1)C(F)(F)F [compound 216]	–	–	–	100* %	0	100	–
CCCOC(=O)c1cnn(Cc2ccc(O/C=C(\OCC)C(F)(F)F)cc2)c1 [compound 217]	–	–	–	100* %	0	100	–
CCO/C(=C\Oc1ccc(Cn2cc(C(=O)OCC(C)C)cn2)cc1)C(F)(F)F [compound 219]	–	–	–	100* %	0	100	–
CCO/C(=C\Oc1ccc(Cn2cc(C(=O)OCC3CC3)cn2)cc1)C(F)(F)F [compound 220]	–	–	–	100* %	0	100	–
CCO/C(=C\Oc1ccc(Cn2cc(C(=O)OCCC#N)cn2)cc1)C(F)(F)F [compound 245]	–	–	–	98* %	0	100	–
CCO/C(=C\Oc1ccc(Cc2ncc(C(=O)NCC(F)F)s2)cc1)C(F)(F)F [compound 276]	–	–	–	100* %	0	13	–
